How the values were obtained:
[1] = system: pancreatic endoderm differentiations of hESCs; assay: Suspension aggregate differentiation to pancreatic endoderm after Stage 1 treatment, Q-PCR; assay type: cell-based, human; settings: Stage 1 cultures treated with 0.1 μM Caffeic acid or 0.17 μM Ivermectin
Method: FIGS. 10A-10I are bar graphs showing the relative gene expression levels of OCT4 (FIG. 10A), MIXL (FIG. 10B), HNF1B (FIG. 10C), HNF4A (FIG. 10D), PAX4 (FIG. 10E), NGN3 (FIG. 10F), NKX2.2 (FIG. 10G), NKX6.1 (FIG. 10H), and PTF1A (FIG. 10I) after treatment of suspension aggregate cell cultures at Stages 1 with DMSO (Control), 0.1 μM Caffeic acid or 0.17 μM Ivermectin agents. Untreated control samples were collected at d0 and d1 (left panel). Treated samples were collected at d2, d3, d5, d7, d9, d11, and d13. The columns for each day of the treated samples are (from left to right): DMSO, Caffeic acid, and Ivermectin. The cultures were differentiated to the end of Stage 4. The results from an untreated, pancreatic endoderm differentiation are shown on the right, with samples collected on days 0, 1, 2, 5, 8, 10 and 14.
To further determine the effects of the above compounds (excluding those compounds that induced off-target differentiation), three selected compounds (chelerythrine chloride (FIGS. 5 & 6), caffeic acid and Ivermectin) were screened for effects on later stages of pancreatic differentiation, (such as Stages 2-5). Human ESCs were first differentiated through Stage 1 then to Stages 2 to 5 in suspension aggregate cultures similar to that above. Stage 1 cultures were treated with DMSO, caffeic acid or Ivermectin substantially as described above. Untreated control samples were collected at d0 (hESC) and d1 (FIG. 10, left panel), while treated samples were collected at days 2, 3, 5, 7, 9, 11 and 13 (FIG. 10 d2, d3, d5, d7, d9, d11 and d13 respectively). Gene expression levels in the collected samples were analyzed using Q-PCR and compared to the d0 (hESC) sample as well as qualified pancreatic endoderm (FIG. 10, right panel). The qualified pancreatic endoderm control consisted of about 50% pancreatic endoderm, about 46% endocrine cells and about 4% “other” cells as determined by flow cytometry. Neither caffeic acid nor Ivermectin affected survival, growth and/or proliferation of pancreatic endoderm differentiations. […] Typical gene expression levels for Stages 3, 4 and 5 cells were normal; for example, increased expression of NKX6.1 and PTF1A at Stage 4, pancreatic endoderm (FIGS. 10H and 10I), and of NGN3 and NKX2.2 at Stage 5, endocrine precursor and endocrine cells (FIGS. 10 F and 10G) was observed.

hESCs (BG02) = assay: Real-time impedance assay (RT-CES) for inhibitory and cytotoxic agents on hESCs; settings: 10 μM compound added after about 24 hours, cultured about 5 more days; compared to DMSO control
Excerpt: The foregoing 176 selected compounds from the complete LOPAC1280™ library were then used to screen human pluripotent stem cells, e.g., hESCs, and differentiating cultures during Stage 1 (definitive endoderm) using a real-time impedance assay (ACEA biosciences RT-CES system). The RT-CES system uses 96-well trays that contain embedded microsensors to monitor changes in electrical impedance, which is translated into a measure of cell index. Any overt alteration within a cell culture can be detected, including but not limited to cell proliferation, migration, cell spreading, apoptosis, differentiation and the like. […] An increase in the cell index indicates proliferation of the cells, for example, proliferation of the undifferentiated cells. […] See also FIG. 1. […] A “scallop” cell index is one which remains high due to a confluent culture of cells, but will go down and up (scallop) between daily feedings. Conversely, cells undergoing differentiation have distinctive patterns, such as peaks and troughs in the cell index, potentially indicative of an epithelial-to-mesenchymal transition, flattening, cell migration, apoptosis or similar differentiation and growth related changes.
Impedance Assay for Inhibitory and Cytotoxic Agents. Human pluripotent stem cells, e.g., 2×10^4 hESCs (BG02), were cultured in DC-HAIF, a heregulin-based defined media, with daily feeding in the impedance monitoring plates. After about 24 hours, and 10 μM of the selected LOPAC1280™ compound was added to each well (see arrowhead in FIGS. 3 A & B) and cultured for about an additional 5 days.

Molecule	Typical gene expression levels for Stages 3, 4 and 5 cells (NKX6.1, PTF1A, NGN3, NKX2.2) ([1]; Q-PCR d2-d13)	survival, growth and/or proliferation of pancreatic endoderm differentiations (pancreatic endoderm viability) ([1]; differentiated to end of Stage 4)	cell index (impedance); inhibitory or cytotoxic effect on the hESCs (hESCs (BG02))
22, 23-dihydroavermectin B1a+22,23-dihydroavermectin B1b [Ivermectin]	normal	did not affect pancreatic endoderm viability	–
CN(N=O)c1cc(O)ccc1O [Dephostatin]	–	–	significant decrease
N#C/C(=C\c1ccc(O)c(O)c1)C(=O)NCc1ccccc1 [Tyrphostin AG 490]	–	–	significant decrease

— patent publication US9365830B2, “Agents and methods for inhibiting human pluripotent stem cell growth” (VIACYTE, INC., priority 2010, dated 2016)
